From the supplement of paper PMC10920090

Key:
MDA-MB-231 [1] = assay: drug sensitivity score (DSS), cytotoxicity CellTox Green; higher = more cytotoxic; extreme values may be limits of the assay; settings: 72 h
MDA-MB-231 [2] = assay: drug sensitivity score (DSS), cell viability CellTiter-Glo; higher = more sensitive; extreme values may be limits of the assay; settings: 72 h
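For drug sensitivity score (DSS), cytotoxicity CellTox Green in this document: DSS summarises each dose–response curve by combining IC50, EC50, maximal inhibition and efficacy across drug concentrations.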

Row | Compound | drug sensitivity score (MDA-MB-231 [1]; shRNA: shPPFIA1_1) [DSS] | drug sensitivity score (MDA-MB-231 [1]; shRNA: shScramble) [DSS] | drug sensitivity score (MDA-MB-231 [2]; shRNA: shPPFIA1_1) [DSS] | drug sensitivity score (MDA-MB-231 [2]; shRNA: shScramble) [DSS]
1 | CCOc1cc2ncc(C#N)c(Nc3ccc(OCc4ccccn4)c(Cl)c3)c2cc1NC(=O)/C=C/CN(C)C [Neratinib] | 0.2 | 0 | 6.3 | 8.3
2 | Cn1cc(C2=C(c3cn(C4CCN(Cc5ccccn5)CC4)c4ccccc34)C(=O)NC2=O)c2ccccc21 [Enzastaurin] | 0 | 0 | 5.6 | 2.8
3 | COc1cc(Nc2ncc(F)c(Nc3ccc4c(n3)N(COP(=O)(O)O)C(=O)C(C)(C)O4)n2)cc(OC)c1OC [Fostamatinib] | 1.6 | 0.8 | 1 | 5.3
4 | CCN(CC)CCCC(C)Nc1c2ccc(Cl)cc2nc2ccc(OC)cc12 (stereo not drawn) [Mepacrine] | 18.5 | 18.6 | 18.6 | 21.1
5 | CS(=O)(=O)N1CCc2c(-c3cnc(N)nc3)nc(N3CCOCC3)nc21 | 0 | 0 | 0 | 7.7
6 | Cc1ccc(Nc2nccc(N(C)c3ccc4c(C)n(C)nc4c3)n2)cc1S(N)(=O)=O [Pazopanib] | 0 | 0 | 2.7 | 7.9
7 | COc1cc2c(N3CCN(C(=O)Nc4ccc(OC(C)C)cc4)CC3)ncnc2cc1OCCCN1CCCCC1 [Tandutinib] | 0 | 0 | 9.9 | 6.5
8 | O=C(Nc1nc2cccc(-c3ccc(CN4CCS(=O)(=O)CC4)cc3)n2n1)C1CC1 [Filgotinib] | 0 | 0 | 0 | 0.2
9 | CN(C)C(=O)c1cc2cnc(Nc3ccc(N4CCNCC4)cn3)nc2n1C1CCCC1 [Ribociclib] | 0 | 0 | 0 | 0
10 | CNC(=O)c1ccc(N2C(=S)N(c3ccc(C#N)c(C(F)(F)F)c3)C(=O)C23CCC3)cc1F [RD162] | 0.8 | 0 | 0 | 0
11 | CC(C)(C)c1cnc(CSc2cnc(NC(=O)C3CCNCC3)s2)o1 [SNS-032] | 10.5 | 6.3 | 5.8 | 13.1
12 | CNC(=O)CN1CCC(Oc2cc3c(Nc4cccc(Cl)c4F)ncnc3cc2OC)CC1 [Sapitinib] | 0 | 0 | 0 | 8.5
13 | CC(C)(C#N)c1cc(Cn2cncn2)cc(C(C)(C)C#N)c1 [Anastrozole] | 0 | 0 | 0 | 0
14 | COC(=O)C[C@](O)(CCCC(C)(C)O)C(=O)O[C@@H]1C(OC)=C[C@]23CCCN2CCc2cc4c(cc2[C@H]13)OCO4 [Omacetaxine] | 11.8 | 18.4 | 11.2 | 22.9
15 | CC(C)Oc1cc(Nc2nc(N[C@@H](C)c3ccc(F)cn3)ncc2Cl)n[nH]1 [AZ-23] | 0 | 1 | 0 | 0
16 | COc1ncc(-c2ccc3nccc(-c4ccnnc4)c3c2)cc1NS(=O)(=O)c1ccc(F)cc1F [Omipalisib] | 0 | 0 | 0 | 10.9

Row | Compound | drug sensitivity score (MDA-MB-231 [1]; shRNA: shPPFIA1_1) [DSS] | drug sensitivity score (MDA-MB-231 [1]; shRNA: shScramble) [DSS] | drug sensitivity score (MDA-MB-231 [2]; shRNA: shPPFIA1_1) [DSS] | drug sensitivity score (MDA-MB-231 [2]; shRNA: shScramble) [DSS]
17 | CN1CCN(C2CCN(C(=O)Nc3cc(Oc4ccc(NC(=O)C5(C(=O)Nc6ccc(F)cc6)CC5)c(F)c4)ccn3)CC2)CC1 [Golvatinib] | 0 | 0 | 0.2 | 2
18 | Cn1cc(C2=Nc3cc(NC(=O)C(N)C4CCCCC4)cc4c3C2=CNNC4=O)cn1 (stereo not drawn) | 3 | 0.8 | 7.8 | 9.4
19 | Cn1nccc1Nc1nccc(-c2ccn([C@H](CO)c3ccc(Cl)c(F)c3)c(=O)c2)n1 [GDC-0994] | 0 | 3 | 0 | 3.5
20 | O=P1(N(CCCl)CCCl)NCCCO1 (stereo not drawn) [Cyclophosphamide] | 0 | 0 | 0 | 0
21 | Cc1cnc(Nc2ccc(OCCN3CCCC3)cc2)nc1Nc1cccc(S(=O)(=O)NC(C)(C)C)c1 [Fedratinib] | 2.2 | 5.7 | 1.9 | 9.2
22 | Cc1c(F)cc(C(=O)NC2CC2)cc1-c1ccc(C(=O)NCC(C)(C)C)cn1 [Losmapimod] | 0 | 0 | 1.7 | 0
23 | COc1cc(N2CCN(C)CC2)ccc1Nc1nccc(-c2cn(C)c3cnccc23)n1 [AZ191] | 0 | 2.9 | 3.6 | 6.8
24 | CO[C@H]1C[C@@H]2CC[C@@H](C)[C@@](O)(O2)C(=O)C(=O)N2CCCC[C@H]2C(=O)O[C@H]([C@H](C)C[C@@H]2CC[C@@H](OP(C)(C)=O)[C@H](OC)C2)CC(=O)[C@H](C)/C=C(\C)[C@@H](O)[C@@H](OC)C(=O)[C@H](C)C[C@H](C)/C=C/C=C/C=C/1C [Ridaforolimus] | 0 | 0 | 0 | 1.6
25 | Cc1cc(-c2ncc(-c3cccnc3)cc2/C=C/c2ccccc2)cnc1-c1cccnc1 [Pyridoclax] | 0.3 | 0 | 1.9 | 5.9
26 | NC(=O)N1CCC(CC(=O)N2CCC([C@H]3c4ncc(Br)cc4CCc4cc(Cl)cc(Br)c43)CC2)CC1 [Lonafarnib] | 0 | 0 | 2.4 | 3.1
27 | Nc1ncnc2c1c(COc1cccc(Cl)c1)nn2C1CCOCC1 | 0 | 0 | 0 | 1.2
28 | N#Cc1ccc2[nH]c(O)c(-c3ccc(CN4CCOCC4)cn3)c2c1 [AZD-1080] | 0 | 0 | 0 | 0
29 | C[C@@]1(C(=O)Nc2ccc(F)nc2)CCCN1c1nc(Nc2cc(C3CC3)n[nH]2)c2cccn2n1 | 0.8 | 0 | 0.2 | 3.7
30 | Cc1[nH]c(/C=C2\C(=O)Nc3ccccc32)c(C)c1CCC(=O)O [Orantinib] | 10.8 | 16.2 | 0 | 0
31 | Nc1ccn([C@@H]2O[C@H](CO)[C@@H](O)[C@@H]2O)c(=O)n1 [Cytarabine] | 0 | 0 | 0 | 1.6
32 | CCn1nnc2c(N3CCOCC3)nc(-c3ccc(NC(=O)Nc4ccc(C(=O)N5CCN(C)CC5)cc4)cc3)nc21 [PKI-402] | 0 | 0 | 1.1 | 9.4
